Test results as given in publication PMC2710007, “Anchoring Secreted Proteins in Endoplasmic Reticulum by Plant Oleosin: The Example of Vitamin B12 Cellular Sequestration by Transcobalamin” (PLoS ONE, 2009).

Target: T1, transcobalamin-oleosin (TC-O) chimera (Homo sapiens, UniProt P20062)
T1 construct: gene TCN2; single fusion: human TC without N-terminal signal peptide and stop codon, at the N-terminal side of full-length peanut oleosin (ER anchor; printed oleosin primer encodes MATATDR...); pAcSG2 baculovirus, Sf9 cells; membrane fraction, not purified; with Oleosin (peanut, 17 kDa)
T1 sequence (P20062 19-427): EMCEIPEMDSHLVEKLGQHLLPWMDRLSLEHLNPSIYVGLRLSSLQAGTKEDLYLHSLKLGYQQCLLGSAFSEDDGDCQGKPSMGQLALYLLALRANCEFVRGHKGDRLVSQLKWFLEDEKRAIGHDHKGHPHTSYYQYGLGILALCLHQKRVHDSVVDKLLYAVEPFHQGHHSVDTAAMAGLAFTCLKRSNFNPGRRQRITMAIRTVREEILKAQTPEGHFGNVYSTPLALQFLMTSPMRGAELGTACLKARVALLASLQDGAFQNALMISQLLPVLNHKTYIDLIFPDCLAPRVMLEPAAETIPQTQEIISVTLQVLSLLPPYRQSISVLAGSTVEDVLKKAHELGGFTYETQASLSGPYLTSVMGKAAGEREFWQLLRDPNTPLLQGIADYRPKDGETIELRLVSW
Assay: radioligand saturation binding, Scatchard plot
Assay type: biochemical
Conditions: membrane fraction of lysed Sf9 cells; 57Co labelled compound; TBS, 4 °C, 20 min; printed as Ka but in a concentration unit (that of a dissociation constant)

Ka: ~ 0.02 pmol/L
Substance: [57Co]-labeled vitamin B12
